Assay results published in ChEMBL document CHEMBL1201862, “PubChem BioAssay data set” (2004).
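Tested at 5 concentrations; 48 h exposure; 96-well plates; endpoints linearly interpolated, else capped at highest concentration. Here, GI50 denotes the concentration required for 50% inhibition of growth.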 The source made the active and inactive calls. No stated cut-off is given here; in the data, active = GI50 up to about 1.1 µM and inactive = higher.

How the values were obtained:
Assay in all cases: DTP human tumour cell line panel, 48 h
U-251 = test system: U-251
SNB-19 = test system: SNB-19
COLO 205 = test system: COLO 205
UACC-257 = test system: UACC-257
HCT-15 = test system: HCT-15
SK-MEL-5 = test system: SK-MEL-5
DMS-273 = test system: DMS-273
UO-31 = test system: UO-31
786-0 = test system: 786-0
SW-620 = test system: SW-620
SN12C = test system: SN12C
RPMI-8226 = test system: RPMI-8226
MOLT-4 = test system: MOLT-4
SK-OV-3 = test system: SK-OV-3
TK-10 = test system: TK-10
SNB-75 = test system: SNB-75
HOP-62 = test system: HOP-62
IGROV-1 = test system: IGROV-1
Malme-3M = test system: Malme-3M
KM12 = test system: KM12
OVCAR-4 = test system: OVCAR-4
K562 = test system: K562
SK-MEL-28 = test system: SK-MEL-28
HL-60 = test system: HL-60
LXFL 529 = test system: LXFL 529
LOX IMVI = test system: LOX IMVI
HOP-18 = test system: HOP-18
OVCAR-8 = test system: OVCAR-8
HOP-92 = test system: HOP-92
KM-20L2 = test system: KM-20L2
OVCAR-3 = test system: OVCAR-3
SF-268 = test system: SF-268
HCT-116 = test system: HCT-116
NCI-H23 = test system: NCI-H23
CCRF-CEM = test system: CCRF-CEM
SNB-78 = test system: SNB-78
HT-29 = test system: HT-29
DLD-1 = test system: DLD-1
SF-295 = test system: SF-295
NCI-H522 = test system: NCI-H522
CAKI-1 = test system: CAKI-1
SR = test system: SR
M19-MEL = test system: M19-MEL
M14 = test system: M14
NCI-H460 = test system: NCI-H460
ACHN = test system: ACHN
OVCAR-5 = test system: OVCAR-5
DMS-114 = test system: DMS-114
A549 = test system: A549
SF-539 = test system: SF-539
SK-MEL-2 = test system: SK-MEL-2
RXF 393 = test system: RXF 393
UACC-62 = test system: UACC-62
NCI-H226 = test system: NCI-H226
A498 = test system: A498
EKVX = test system: EKVX
HCC 2998 = test system: HCC 2998
XF498 = test system: XF498

## O=C(c1ccco1)N(C(=S)N1CCN(c2ccccc2)CC1)C1CCCCC1
U-251
  GI50: > 100 µM (inactive)
SNB-19
  GI50: > 100 µM (inactive)
COLO 205
  GI50: 45 µM (inactive)
UACC-257
  GI50: 72.4 µM (inactive)
HCT-15
  GI50: 94.6 µM
SK-MEL-5
  GI50: 56.4 µM (inactive)
DMS-273
  GI50: 59.4 µM (inactive)
UO-31
  GI50: 33.3 µM (inactive)
786-0
  GI50: > 100 µM (inactive)
SW-620
  GI50: > 100 µM (inactive)
SN12C
  GI50: > 100 µM (inactive)
RPMI-8226
  GI50: > 100 µM (inactive)
MOLT-4
  GI50: > 100 µM (inactive)
SK-OV-3
  GI50: > 100 µM (inactive)
TK-10
  GI50: > 100 µM (inactive)
SNB-75
  GI50: 50.5 µM (inactive)
HOP-62
  GI50: > 100 µM (inactive)
IGROV-1
  GI50: > 100 µM (inactive)
Malme-3M
  GI50: > 100 µM (inactive)
KM12
  GI50: > 100 µM (inactive)
OVCAR-4
  GI50: > 100 µM (inactive)
K562
  GI50: > 100 µM (inactive)
SK-MEL-28
  GI50: > 10 µM (inactive)
HL-60
  GI50: > 100 µM (inactive)
LXFL 529
  GI50: 95.5 µM (inactive)
LOX IMVI
  GI50: 57.3 µM (inactive)
HOP-18
  GI50: > 100 µM (inactive)
OVCAR-8
  GI50: > 100 µM (inactive)
HOP-92
  GI50: > 100 µM (inactive)
KM-20L2
  GI50: 90.4 µM (inactive)
OVCAR-3
  GI50: > 100 µM (inactive)
SF-268
  GI50: > 100 µM (inactive)
HCT-116
  GI50: 62.8 µM (inactive)
NCI-H23
  GI50: > 100 µM (inactive)
CCRF-CEM
  GI50: > 100 µM (inactive)
SNB-78
  GI50: > 100 µM (inactive)
HT-29
  GI50: 63.5 µM (inactive)
DLD-1
  GI50: 85.1 µM (inactive)
SF-295
  GI50: 79.8 µM (inactive)
NCI-H522
  GI50: > 100 µM (inactive)
CAKI-1
  GI50: > 100 µM (inactive)
SR
  GI50: > 100 µM (inactive)
M19-MEL
  GI50: > 100 µM (inactive)
M14
  GI50: 98.4 µM (inactive)
NCI-H460
  GI50: 76 µM (inactive)
ACHN
  GI50: > 100 µM (inactive)
OVCAR-5
  GI50: > 100 µM (inactive)
DMS-114
  GI50: 38.7 µM (inactive)
A549
  GI50: 67.1 µM (inactive)
SF-539
  GI50: > 100 µM (inactive)
SK-MEL-2
  GI50: > 100 µM (inactive)
RXF 393
  GI50: 52.6 µM (inactive)
UACC-62
  GI50: > 100 µM (inactive)

## CC(=O)OC(CC1(C)C(C)CCC23COC(=O)C2=CCCC31)c1ccoc1 (stereo not drawn)
U-251
  GI50: 15.8 µM (inactive)
SNB-19
  GI50: 25.4 µM (inactive)
COLO 205
  GI50: 40.4 µM (inactive)
UACC-257
  GI50: 24 µM (inactive)
HCT-15
  GI50: 20.4 µM
SK-MEL-5
  GI50: 19.5 µM (inactive)
NCI-H226
  GI50: 16.7 µM (inactive)
UO-31
  GI50: 19.1 µM (inactive)
786-0
  GI50: 17.1 µM (inactive)
SW-620
  GI50: 24.9 µM (inactive)
SN12C
  GI50: 19.9 µM (inactive)
MOLT-4
  GI50: 19.5 µM (inactive)
SK-OV-3
  GI50: 40.8 µM (inactive)
SNB-75
  GI50: 23.3 µM (inactive)
HOP-62
  GI50: 27.5 µM (inactive)
A498
  GI50: 45.3 µM (inactive)
Malme-3M
  GI50: 21.8 µM (inactive)
KM12
  GI50: 26.2 µM (inactive)
OVCAR-4
  GI50: 28.1 µM (inactive)
K562
  GI50: 23.4 µM (inactive)
SK-MEL-28
  GI50: 17.7 µM (inactive)
LXFL 529
  GI50: 18.4 µM (inactive)
LOX IMVI
  GI50: 21.3 µM (inactive)
EKVX
  GI50: 30.5 µM (inactive)
OVCAR-8
  GI50: 20.3 µM (inactive)
HOP-92
  GI50: 26.2 µM (inactive)
KM-20L2
  GI50: 19.3 µM (inactive)
OVCAR-3
  GI50: 20.8 µM (inactive)
HCC 2998
  GI50: 22.3 µM (inactive)
SF-268
  GI50: 15.9 µM (inactive)
HCT-116
  GI50: 20.5 µM (inactive)
NCI-H23
  GI50: 19 µM (inactive)
CCRF-CEM
  GI50: 20.2 µM (inactive)
SNB-78
  GI50: 25.4 µM (inactive)
HT-29
  GI50: 29.6 µM (inactive)
DLD-1
  GI50: 26 µM (inactive)
SF-295
  GI50: 28.7 µM (inactive)
NCI-H522
  GI50: 18.5 µM (inactive)
M19-MEL
  GI50: 33.8 µM (inactive)
M14
  GI50: 16.3 µM (inactive)
NCI-H460
  GI50: 40.4 µM (inactive)
ACHN
  GI50: 28.8 µM (inactive)
OVCAR-5
  GI50: 28.2 µM (inactive)
DMS-114
  GI50: 29.9 µM (inactive)
A549
  GI50: 31.6 µM (inactive)
XF498
  GI50: 20.8 µM (inactive)
SF-539
  GI50: 25.9 µM (inactive)
SK-MEL-2
  GI50: 23.4 µM (inactive)
RXF 393
  GI50: 14.2 µM (inactive)
UACC-62
  GI50: 23.1 µM (inactive)
